From patent publication US20240025868A1, “PHENOTHIAZINE COMPOUNDS FOR THE TREATMENT OF ALZHEIMER'S DISEASE AND OTHER AGE-RELATED AND NEUROLOGICAL DISEASES” (Icahn School of Medicine at Mount Sinai, priority 2020, published 2024)
Several values for one entry are separate records, joined by “and”; a condition that tells them apart may be missing. Equal entries are not always repeated. Structures can show the parent of a compound that is named as a salt. Where two headings read alike, the source gives them in different places.

How the values were obtained:
[1] = Viability of Vero cells (CC50); format: cell-based; conditions: African green monkey; concentration that reduces viability of Vero cells
SARS-CoV-2 = assay: microbe, parasite or virus in culture; format: cell-based
TNF-alpha = assay: Microglial TNF-alpha secretion, LPS stimulated; format: cell-based; conditions: for TNFa: percentage of TNFa vs LPS stimulated controls, Table 2; for TNF-a.: Table 3, microglial inflammation, presented for comparison
Experimental: The efficacy of these compounds to reduce toxicity are assessed, as reflected by age-dependent paralysis, in an Abeta transgenic C. elegans model of Alzheimer's Disease. Because microglial inflammation, especially the cytokine TNF-alpha, are implicated in driving the pathophysiology of Alzheimer's Disease, […], was also assessed.

C. elegans = assay: Lifespan in C. elegans; format: in vivo
microglial cells = assay: MTT viability of microglial cells (microglial toxicity); format: cell-based
[2] = Plasma and brain concentrations after IV or oral administration in mice; format: in vivo; conditions: male C57BL/6 mice
Experimental: FIG. 2. Plasma and brain concentrations of TC084-110 over 8 h following a single IV injection (A) at 1 mg/kg or oral administration (B) at 10 mg/kg in male C57BL/6 mice. […] Plasma and brain concentrations at each time point represent the mean+/−SD from 3 mice.

[3] = tested on: Abeta transgenic C. elegans; assay: Paralysis in Abeta transgenic C. elegans (Abeta toxicity); format: in vivo; conditions: for paralysis: Table 3, Abeta toxicity in C. elegans, one to six unexplained values per cell
[4] = tested on: mouse model of intracerebral hemorrhage; assay: Mouse model of intracerebral hemorrhage, motor and cognitive function; format: in vivo; conditions: for cognitive function: alternation in a Y-maze; for cognitive function / motor function: compared to DMSO, normalized to pre-ICH function; for motor function: rotarod
Experimental: FIG. 1. […] Motor function was assessed using rotarod and cognitive was assessed by alternation in a Y-maze. All data were normalized to data pre-ICH function.
Motor function was assessed using rotarod and cognitive was assessed by alternation in a Y-maze. All data were normalized to data pre-ICH function.

[5] = tested on: mouse double-transgenic (A-beta/presenilin) model of AD; conditions: treatment between 14 and 15 months; Govindarajan et al. 2011; cited from earlier work
[6] = tested on: Abeta transgenic C. elegans; conditions: Zhang, Poplawski et al. 2009; cited from earlier work
Vero cells = assay: Viability of Vero cells (CC50); format: cell-based; conditions: concentration that reduces viability of Vero cells
[7] = percentage of MTT viability compared to unstimulated DMSO control cells, Table 2
[8] = Severe acute respiratory syndrome coronavirus 2, concentration that inhibits replication of SARS-CoV-2 in Vero cells by 50%, read-out: IC50
[9] = Table 3, net protective effects in C. elegans, class letter
[10] = Table 3, microglial toxicity, presented for comparison
[11] = concentration that inhibits replication of SARS-CoV-2 in Vero cells by 50%, read-out: IC50

Row | Compound | TNFa (TNF-alpha) [%] | lifespan in C. elegans (C. elegans) | Lifespan (C. elegans; Table 2, class letters I, D, N) | MTT (microglial cells; [7]) [%] | further results
1 | CCC(CC)COC(=O)[C@H](C)N[P@](=O)(OC[C@H]1O[C@@](C#N)(c2ccc3c(N)ncnn23)[C@H](O)[C@@H]1O)Oc1ccccc1 [Remdesivir, reference compound] | – | – | – | – | CC50 [1]: > 20 µM; IC50 (SARS-CoV-2; Severe acute respiratory syndrome coronavirus 2, Vero): 1.2 µM
2 | CC(=O)c1ccc2c(c1)N(C(C)=O)c1ccccc1S2 [TC84-13, 1,1′-(10H-phenothiazine-2,10-diyl)bis(ethan-1-one)] | 95.36 | increased lifespan | I | 154.03 | –
3 | CC(=O)c1ccc2c(c1)N(C(C)=O)c1ccccc1[S+]2[O-] (centres unmarked) [TC84-20, 1,1′-(5-oxido-10H-phenothiazine-2,10-diyl)bis(ethan-1-one)] | 95.41 | increased lifespan | I | 158.76 | –
4 | COc1ccc2c(c1)N(C(C)=O)c1ccccc1S2 [TC84-31, 1-(2-methoxy-10H-phenothiazin-10-yl)ethan-1-one] | 92.28 | – | – | 153.72 | –
5 | CC(=O)N1c2ccccc2Sc2ccc(C(F)(F)F)cc21 [TC84-32, 1-(2-(trifluoromethyl)-10H-phenothiazin-10-yl)ethan-1-one] | 90.74 | – | – | 141.59 | –
6 | COc1ccc2c(c1)N(C(C)=O)c1ccccc1[S+]2[O-] (centres unmarked) [TC84-37, 1-(2-methoxy-5-oxido-10H-phenothiazin-10-yl)ethan-1-one] | 90.49 | – | – | 140.38 | –
7 | CC(=O)N1c2ccccc2[S+]([O-])c2ccc(C(F)(F)F)cc21 (centres unmarked) [TC84-38, 1-(5-oxido-2-(trifluoromethyl)-10H-phenothiazin-10-yl)ethan-1-one] | 97.23 | increased lifespan | I | 149.90 | –
8 | CC(=O)N1c2ccccc2[S+]([O-])c2ccc(Cl)cc21 (centres unmarked) [TC84-39, 1-(2-chloro-5-oxido-10H-phenothiazin-10-yl)ethan-1-one] | 90.88 | increased lifespan | I | 134.67 | –
9 | CN1CCCCC1CCN1c2ccccc2Sc2ccc(F)cc21 (centres unmarked) [TC84-110, 2-fluoro-10-(2-(1-methylpiperidin-2-yl)ethyl)-10H-phenothiazine] | 58.49 | increased lifespan | I | 91.99 | microglial TNF-alpha secretion (TNF-alpha): significantly reduced; TNF-a. (TNF-alpha): 58.49%; CC50 [1]: 8.1 µM; SARS-CoV-2 replication (SARS-CoV-2): reduced SARS-CoV-2 replication; IC50 (SARS-CoV-2; [8]): 1.2 µM; Lifespan (C. elegans; [9]): I; MTT (microglial cells; [10]): 91.99%; oral availability ([2]; oral administration at 10 mg/kg): orally available; brain/plasma ratio ([2]; single IV 1 mg/kg or oral 10 mg/kg, over 8 h): very high; Abeta toxicity [3]: reduced Abeta toxicity; protection to maintain open field behavior and cognitive impairments ([4]; administered after the lesion was produced): significantly protective; cognitive function [4]: preserve; off-target effects such as sedation ([4]; mouse): no discernable off-target effects; motor function [4]: preserve
10 | Cc1cc2c(cc1C)N(CCCN(C)C)c1ccccc1S2 [TC84-124, 3-(2,3-dimethyl-10H-phenothiazin-10-yl)-N,N-dimethylpropan-1-amine] | 56.73 | increased lifespan | I | 82.48 | microglial TNF-alpha secretion (TNF-alpha): significantly reduced; TNF-a. (TNF-alpha): 56.73%; CC50 [1]: 6.5 µM; SARS-CoV-2 replication (SARS-CoV-2): reduced SARS-CoV-2 replication; IC50 (SARS-CoV-2; [8]): 1.7 µM; Lifespan (C. elegans; [9]): I; MTT (microglial cells; [10]): 82.48%; Abeta toxicity [3]: reduced Abeta toxicity
11 | Cc1cc2c(cc1C)N(CCC1CCCCN1C)c1ccccc1S2 (centres unmarked) [TC84-125, 2,3-dimethyl-10-(2-(1-methylpiperidin-2-yl)ethyl)-10H-phenothiazine] | 41.37 | increased lifespan | I | 42.77 | microglial TNF-alpha secretion (TNF-alpha): significantly reduced; Abeta toxicity [3]: reduced Abeta toxicity
12 | CN1CCCCC1CCN1c2ccccc2Sc2cc(C(F)(F)F)ccc21 (centres unmarked) [TC84-144, 10-(2-(1-methylpiperidin-2-yl)ethyl)-3-(trifluoromethyl)-10H-phenothiazine] | 45.34 | increased lifespan | I | 41.27 | –
13 | CC(=O)c1ccc2c(c1)N(CCCN(C)C(C)=O)c1ccccc1S2 [TC84-161, N-(3-(2-acetyl-10H-phenothiazin-10-yl)propyl)-N-methylacetamide] | 89.27 | increased lifespan | I | 106.15 | –
14 | CC(=O)N(C)CCCN1c2ccccc2Sc2ccc(C(F)(F)F)cc21 [TC84-162, N-methyl-N-(3-(2-(trifluoromethyl)-10H-phenothiazin-10-yl)propyl)acetamide] | 94.58 | – | – | 121.08 | microglial TNF-alpha secretion (TNF-alpha): significantly reduced; Abeta toxicity [3]: reduced Abeta toxicity
15 | COc1ccc2c(c1)N(CCCN(C)C(C)=O)c1ccccc1S2 [TC84-163, N-(3-(2-methoxy-10H-phenothiazin-10-yl)propyl)-N-methylacetamide] | 99.98 | increased lifespan | I | 108.79 | –
16 | Cc1ccc2c(c1)N(CCC1CCCCN1C)c1cc(C(F)(F)F)ccc1S2 (centres unmarked) [TC96-20, 2-methyl-10-(2-(1-methylpiperidin-2-yl)ethyl)-8-(trifluoromethyl)-10H-phenothiazine] | 49.67 | – | – | 51.90 | microglial TNF-alpha secretion (TNF-alpha): significantly reduced; Abeta toxicity [3]: reduced Abeta toxicity
17 | COc1ccc2c(c1)N(CCC1CCCCN1C(C)=O)c1ccccc1S2 (centres unmarked) [TC96-32, 1-(2-(2-(2-methoxy-10H-phenothiazin-10-yl)ethyl)piperidin-1-yl)ethan-1-one] | 78.98 | – | – | 106.92 | –
18 | CN(C)CCCN1c2ccccc2Sc2ccc(C(F)(F)F)cc21 [Triflupromazine Hydrochloride] | – | – | – | – | CC50 [1]: 7 µM
19 | CCCC(=O)[O-].[Na+] [sodium butyrate] | – | – | – | – | A-beta plaques [5]: no changes in A-beta plaques; acetylation of H3K14, H4K5, and H4K16 [5]: reduced acetylation; cognitive impairments [5]: reversed cognitive impairments; Abeta toxicity in vivo in a C. elegans model of AD [6]: significantly reduces Abeta toxicity
20 | Chlorpromazine [reference compound] | – | – | – | – | TNF-a. (TNF-alpha): 63.83%; CC50 (Vero cells): 6.7 µM; IC50 (SARS-CoV-2; [11]): 4.4 µM; Lifespan (C. elegans; [9]): I; MTT (microglial cells; [10]): 79.38%; paralysis [3]: 0%
21 | Chlorprothixene [reference compound] | – | – | – | – | TNF-a. (TNF-alpha): 69.84%; CC50 (Vero cells): 3.5 µM; IC50 (SARS-CoV-2; [11]): 1 µM; Lifespan (C. elegans; [9]): I 0.0493; MTT (microglial cells; [10]): 122.40%; paralysis [3]: 64.31% and 47.65%; cognitive function [4]: preserve; motor function [4]: preserve
